Results on 27 compounds are retold here after ChEMBL document CHEMBL1142381, “Design, synthesis, and biological evaluation of (hydroxyphenyl)naphthalene and -quinoline derivatives: potent and selective nonsteroidal inhibitors of 17beta-hydroxysteroid dehydrogenase type 1 (17beta-HSD1) for the treatment of estrogen-dependent diseases” (J Med Chem, 2008).

What is called inhibition is how much of the control response was suppressed. The term IC50 denotes the concentration that inhibits the measured activity by half. A low value points to inhibition by little substance. As a reminder, the Papp is a coefficient for how fast a substance crosses the barrier.

Series [1] addresses T1, 17-beta-hydroxysteroid dehydrogenase type 1 (Homo sapiens) (UniProt P14061).
T1 sequence (whole entry): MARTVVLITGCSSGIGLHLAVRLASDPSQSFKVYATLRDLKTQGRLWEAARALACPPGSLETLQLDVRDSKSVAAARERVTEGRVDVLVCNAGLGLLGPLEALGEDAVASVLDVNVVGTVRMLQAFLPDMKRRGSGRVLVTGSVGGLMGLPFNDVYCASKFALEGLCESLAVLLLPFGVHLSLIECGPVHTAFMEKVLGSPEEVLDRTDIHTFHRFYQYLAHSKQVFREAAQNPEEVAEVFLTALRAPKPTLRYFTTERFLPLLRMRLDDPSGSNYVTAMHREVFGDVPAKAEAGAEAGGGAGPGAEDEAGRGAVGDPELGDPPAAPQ
The series can be described thus: Inhibition of human recombinant 17beta-HSD1 expressed in Sf9 insect cells at 100 nM.

The target of series [2] is T1, 17-beta-hydroxysteroid dehydrogenase type 1 (Homo sapiens). The series can be described thus: Inhibition of human recombinant 17beta-HSD1 expressed in Sf9 insect cells at 1 uM.
The target in series [3] is T2, 17-beta-hydroxysteroid dehydrogenase type 1 (Homo sapiens, UniProt P14061).
T2 sequence (P14061 whole entry): T1 sequence (whole entry)
The series can be described thus: Inhibition of human placental 17beta-HSD1.

The target of series [4] is T3, 17-beta-hydroxysteroid dehydrogenase type 2 (Homo sapiens, UniProt P37059).
T3 sequence (P37059 whole entry): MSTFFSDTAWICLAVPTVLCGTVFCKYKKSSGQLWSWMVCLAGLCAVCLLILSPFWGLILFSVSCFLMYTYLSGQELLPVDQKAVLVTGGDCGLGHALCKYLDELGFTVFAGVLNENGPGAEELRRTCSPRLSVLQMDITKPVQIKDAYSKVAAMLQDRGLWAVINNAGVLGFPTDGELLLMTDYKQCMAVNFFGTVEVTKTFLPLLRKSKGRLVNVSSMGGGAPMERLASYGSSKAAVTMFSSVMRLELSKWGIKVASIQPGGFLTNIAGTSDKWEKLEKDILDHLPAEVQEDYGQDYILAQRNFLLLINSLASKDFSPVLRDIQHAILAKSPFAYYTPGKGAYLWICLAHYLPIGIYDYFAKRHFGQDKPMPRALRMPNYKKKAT
The series can be described thus: Inhibition of human placental 17beta-HSD2.

Series [5] concerns the target T4, Estrogen receptor (Homo sapiens) (UniProt P03372).
T4 sequence (whole entry): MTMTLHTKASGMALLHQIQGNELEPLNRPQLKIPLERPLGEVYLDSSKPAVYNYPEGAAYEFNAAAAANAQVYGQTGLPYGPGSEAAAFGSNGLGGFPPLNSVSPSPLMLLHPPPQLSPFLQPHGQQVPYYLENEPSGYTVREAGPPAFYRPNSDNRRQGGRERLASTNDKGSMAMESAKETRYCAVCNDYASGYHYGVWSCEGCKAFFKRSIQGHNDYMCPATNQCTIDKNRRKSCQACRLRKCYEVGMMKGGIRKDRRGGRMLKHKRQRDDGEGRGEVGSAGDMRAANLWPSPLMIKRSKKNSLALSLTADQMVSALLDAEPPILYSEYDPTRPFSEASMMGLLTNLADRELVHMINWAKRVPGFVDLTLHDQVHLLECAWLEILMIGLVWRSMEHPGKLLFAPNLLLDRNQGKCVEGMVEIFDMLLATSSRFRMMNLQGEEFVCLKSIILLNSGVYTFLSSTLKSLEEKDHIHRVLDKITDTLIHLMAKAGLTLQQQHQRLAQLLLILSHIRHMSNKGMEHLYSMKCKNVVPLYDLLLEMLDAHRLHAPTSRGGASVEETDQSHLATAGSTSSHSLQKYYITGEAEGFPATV
The series can be described thus: Displacement of [3H]estradiol from human recombinant ERalpha relative to estradiol.

Series [6] concerns the target Estrogen receptor beta (Homo sapiens) (UniProt Q92731). The series can be described thus: Displacement of [3H]estradiol from human recombinant ERbeta relative to estradiol. (In a radioligand displacement assay an active substance lowers the binding of a labelled ligand.)
The species entered for another series is Homo sapiens. The series can be described thus: Selectivity ratio for human placental 17beta-HSD1 over human placental 17beta-HSD2.
The nature of series [7]: Apparent permeability across human Caco-2 cell membrane. It counts as ADME, cell-based. Background: Caco-2 cells form a polarised layer with tight junctions and transporters.

Bounds are passed on as bounds.

Chain of Estrogen receptor beta (Homo sapiens) (Q92731 whole entry): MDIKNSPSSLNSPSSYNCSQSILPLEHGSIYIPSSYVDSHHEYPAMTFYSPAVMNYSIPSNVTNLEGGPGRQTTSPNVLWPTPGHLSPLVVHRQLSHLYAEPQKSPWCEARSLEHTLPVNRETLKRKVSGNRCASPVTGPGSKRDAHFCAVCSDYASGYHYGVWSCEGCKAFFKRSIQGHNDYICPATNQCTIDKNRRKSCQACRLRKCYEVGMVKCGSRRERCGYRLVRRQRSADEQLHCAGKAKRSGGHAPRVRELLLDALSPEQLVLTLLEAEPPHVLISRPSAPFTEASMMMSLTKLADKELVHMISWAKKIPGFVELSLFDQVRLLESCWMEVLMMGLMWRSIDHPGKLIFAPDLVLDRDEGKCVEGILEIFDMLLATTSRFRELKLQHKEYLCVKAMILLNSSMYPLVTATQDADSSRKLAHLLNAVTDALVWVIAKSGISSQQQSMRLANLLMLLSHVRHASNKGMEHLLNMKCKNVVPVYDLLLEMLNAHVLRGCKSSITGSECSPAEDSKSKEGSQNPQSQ

Consider `Oc1cccc(-c2cnc3ccccc3c2)c1`, for which the inhibition in series [1] was under 10%; in series [2], 18%.
For the compound `Oc1cccc(-c2cnc3cc(O)ccc3c2)c1`, the inhibition stood at 24% in series [1] and 57% in series [2].
Take `Oc1ccc2cc(-c3ccsc3)ccc2c1`: the inhibition in series [1] and in series [2] was under 10% throughout.
As to `Oc1ccc(-c2ccc3cc(O)ccc3c2)cc1`, the inhibition in series [1] and in series [2] was under 10% each time.
As to `Oc1cccc(-c2cc3cc(O)ccc3[nH]2)c1`, the inhibition in series [1] and in series [2] was under 10% in each case.
Turning to `Oc1cccc(-c2ccc3ccc(O)cc3c2)c1`, the results for the inhibition in series [1] and in series [2] were 16% and 62%, respectively.
With `Oc1ccc(-c2cnc3ccccc3c2)cc1`, the inhibition in series [1] and in series [2] was under 10% throughout.
Consider `O=C(O)c1cccc(-c2ccc3cc(O)ccc3c2)c1`, for which the inhibition in series [1] is 36%; in series [2] it was 76%.
`O=C1CCCc2cc(-c3cccc(O)c3)ccc21`: the figures for the inhibition in series [1] and in series [2] were under 10% and 23%, respectively.
For `Oc1ccc(-c2cnc3cc(O)ccc3c2)cc1` the same measures were under 10% and under 10%.
In the same order, the values of `O=[N+]([O-])c1cccc(-c2ccc3cc(O)ccc3c2)c1` are under 10% and under 10%.
For `CC(=O)Nc1cccc(-c2ccc3cc(O)ccc3c2)c1` the same measures were under 10% and 19%.
Regarding `OCc1cccc(-c2ccc3cc(O)ccc3c2)c1`, the inhibition in series [1] and in series [2] was under 10% in each case.
As for `Nc1cccc(-c2ccc3cc(O)ccc3c2)c1`, the inhibition in series [1] and in series [2] was under 10% each time.
Take `Oc1ccc(-c2ccc3c(O)cccc3c2)cc1`: the IC50 in series [3] turned out to be 2.42 µM; in series [4], 0.302 µM. Besides, the RBA in series [5] and in series [6] was 5% each time. For the same compound, the Ratio IC50 in the series listed under Homo sapiens turned out to be 0.1.
Turning to `Oc1ccc2cc(-c3ccccc3O)ccc2c1`, the inhibition in series [1] and in series [2] was under 10% each time.
As for `O=C(O)c1ccc(-c2ccc3cc(O)ccc3c2)cc1`, the inhibition in series [1] and in series [2] was under 10% throughout.
In the case of `Oc1ccc2cc(-c3cccnc3)ccc2c1`, the inhibition in series [1] was under 10%; in series [2], 32%.
In the same order, the values of `OCc1ccc(-c2ccc3cc(O)ccc3c2)cc1` are under 10% and 13%.
In the same order, the values of `Oc1cccc(-c2ccc3c(O)cccc3c2)c1` are under 10% and 23%.
For `Oc1ccc2cc(-c3ccccc3)ccc2c1` the same measures were under 10% and under 10%.
For `C[C@]12CC[C@@H]3c4ccc(O)cc4CC[C@H]3[C@@H]1CC(CCCCCCCCC(=O)OC[C@H]1O[C@@H](n3cnc4c(N)ncnc43)[C@H](O)[C@@H]1O)[C@@H]2O` (stereo partly drawn), in series [3], 0.052 µM corresponded to half-maximal inhibition (IC50).
As for `Oc1ccc2cc(-c3cccs3)ccc2c1`, the inhibition in series [1] and in series [2] was under 10% each time.
`Oc1cccc(-c2ccc3cc(O)ccc3n2)c1`: the inhibition in series [1] was found to be 14%; in series [2], 63%.
Regarding `Oc1cccc(-c2ccc3cc(O)ccc3c2)c1`, in series [7], the Papp was found to be 8.9 ×10⁻⁶ cm/s. The compound also returned an IC50 in series [3] of 0.116 µM. Moreover, the RBA in series [5] is 0.2%; in series [6], 0.8%.
On to `Oc1cncc(-c2ccc3cc(O)ccc3c2)c1`, for which the values for the IC50 in series [3] and in series [4] were 1.23 µM and over 10 µM, respectively. In addition, the inhibition in series [1] was 30%; in series [2], 58%. The RBA in series [5] came out at 0.01%; in series [6], 1%. Also, in the series listed under Homo sapiens, the Ratio IC50 was over 8.
With `Oc1cccc(-c2ccc3ccccc3c2)c1`, the figures for the IC50 in series [3] and in series [4] were 2.26 µM and 4.01 µM, respectively. Also, the inhibition is 26% in series [1] and 61% in series [2]. The RBA in series [5] and in series [6] was 0.01% throughout. Besides, in the series listed under Homo sapiens, the Ratio IC50 turned out to be 1.8.
